ChEMBL document CHEMBL3286254, “Structure-guided discovery of 1,3,5 tri-substituted benzenes as potent and selective matriptase inhibitors exhibiting in vivo antitumor efficacy” (Bioorg Med Chem, 2014)
Converted amounts (≈) assume the structure as drawn.

Experiments:
Trypsin = Trypsin (Homo sapiens, UniProt P07477+P07478+P35030); test: Inhibition of human pancreas Trypsin using Boc-Gln-Ala-Arg-7-amido-4-methyl coumarin hydrobromide; format: protein assay
[1] = Terminal half life in NMRI mouse at 1 mg/kg, sc; details: in vivo, read-out: beta t1/2 (converted)
DU-145 [2] = test: Antiinvasion activity in human DU145 cells assessed as inhibition of FBS-induced cell invaded to lower surface at 10 uM for 3 days by matrigel assay; format: functional; details: DU-145, 72 h
[3] = Aqueous solubility of the compound; format: physicochemical; details: buffer
[4] = Metabolic stability in rat liver microsomes assessed as compound remaining after 20 mins; format: ADME; details: read-out: Stability
Cytochrome P450 2C19 = Cytochrome P450 2C19 (Homo sapiens, UniProt P33261); test: Inhibition of CYP2C19 (unknown origin); format: ADME
Cytochrome P450 2C19, sequence (P33261 whole entry): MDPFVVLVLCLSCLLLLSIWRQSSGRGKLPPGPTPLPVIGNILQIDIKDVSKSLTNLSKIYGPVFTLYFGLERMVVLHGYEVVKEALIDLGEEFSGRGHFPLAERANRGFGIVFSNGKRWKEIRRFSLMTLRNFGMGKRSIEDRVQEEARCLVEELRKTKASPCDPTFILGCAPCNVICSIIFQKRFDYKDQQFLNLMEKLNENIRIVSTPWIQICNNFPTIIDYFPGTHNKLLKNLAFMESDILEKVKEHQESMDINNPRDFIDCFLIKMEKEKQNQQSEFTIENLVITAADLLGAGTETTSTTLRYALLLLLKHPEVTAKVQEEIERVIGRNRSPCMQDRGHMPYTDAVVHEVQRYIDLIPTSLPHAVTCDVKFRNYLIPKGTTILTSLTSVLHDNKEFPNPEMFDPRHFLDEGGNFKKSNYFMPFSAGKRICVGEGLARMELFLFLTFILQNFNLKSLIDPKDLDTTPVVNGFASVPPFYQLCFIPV

DU-145 [5] = test: Cytotoxicity against human DU145 cells assessed as cell survival at 10 uM after 72 hrs by calcein AM assay; format: functional; details: DU-145, 72 h, read-out: Activity
Cytochrome P450 2C9 = Cytochrome P450 2C9 (Homo sapiens, UniProt P11712); test: Inhibition of CYP2C9 (unknown origin); format: ADME
Cytochrome P450 2C9, sequence (P11712 whole entry): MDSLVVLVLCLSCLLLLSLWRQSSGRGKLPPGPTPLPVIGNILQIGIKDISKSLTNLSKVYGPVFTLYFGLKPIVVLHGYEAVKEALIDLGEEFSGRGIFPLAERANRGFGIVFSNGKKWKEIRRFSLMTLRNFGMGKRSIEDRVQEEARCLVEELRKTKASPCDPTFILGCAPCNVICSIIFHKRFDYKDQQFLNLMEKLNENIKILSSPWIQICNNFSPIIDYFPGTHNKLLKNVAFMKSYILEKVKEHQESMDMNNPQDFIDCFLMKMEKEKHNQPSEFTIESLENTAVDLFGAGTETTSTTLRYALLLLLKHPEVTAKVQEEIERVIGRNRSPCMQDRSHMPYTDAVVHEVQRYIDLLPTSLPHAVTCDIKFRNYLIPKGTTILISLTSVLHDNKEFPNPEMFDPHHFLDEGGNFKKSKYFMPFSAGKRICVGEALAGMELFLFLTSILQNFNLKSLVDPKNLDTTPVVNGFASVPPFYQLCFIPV

[6] = Metabolic stability in human liver microsomes assessed as compound remaining after 20 mins; format: ADME; details: read-out: Stability
[7] = AUC (0 to infinity) in NMRI mouse at 1 mg/kg, sc; details: plasma
Mus musculus [8] = test: Toxicity in SCID mouse xenografted with human DU145 cells assessed as clinical signs at 1 mg/kg, sc administered twice daily for 31 days; details: in vivo, 744 h
PC-3 [9] = test: Cytotoxicity against human PC3 cells assessed as inhibition of number of colonies formed in soft agar measured on day 8; format: functional, cell-based; details: PC-3, 192 h
Prothrombin = Prothrombin (Homo sapiens, UniProt P00734); test: Inhibition of human thrombin using Boc-Gln-Ala-Arg-7-amido-4-methyl coumarin hydrobromide
[10] = biological target: T1, Suppressor of tumorigenicity 14 protein (Homo sapiens, UniProt Q9Y5Y6); test: Inhibition of recombinant matriptase (unknown origin) using Boc-Gln-Ala-Arg-7-amido-4-methyl coumarin hydrobromide
T1 sequence (Q9Y5Y6 whole entry): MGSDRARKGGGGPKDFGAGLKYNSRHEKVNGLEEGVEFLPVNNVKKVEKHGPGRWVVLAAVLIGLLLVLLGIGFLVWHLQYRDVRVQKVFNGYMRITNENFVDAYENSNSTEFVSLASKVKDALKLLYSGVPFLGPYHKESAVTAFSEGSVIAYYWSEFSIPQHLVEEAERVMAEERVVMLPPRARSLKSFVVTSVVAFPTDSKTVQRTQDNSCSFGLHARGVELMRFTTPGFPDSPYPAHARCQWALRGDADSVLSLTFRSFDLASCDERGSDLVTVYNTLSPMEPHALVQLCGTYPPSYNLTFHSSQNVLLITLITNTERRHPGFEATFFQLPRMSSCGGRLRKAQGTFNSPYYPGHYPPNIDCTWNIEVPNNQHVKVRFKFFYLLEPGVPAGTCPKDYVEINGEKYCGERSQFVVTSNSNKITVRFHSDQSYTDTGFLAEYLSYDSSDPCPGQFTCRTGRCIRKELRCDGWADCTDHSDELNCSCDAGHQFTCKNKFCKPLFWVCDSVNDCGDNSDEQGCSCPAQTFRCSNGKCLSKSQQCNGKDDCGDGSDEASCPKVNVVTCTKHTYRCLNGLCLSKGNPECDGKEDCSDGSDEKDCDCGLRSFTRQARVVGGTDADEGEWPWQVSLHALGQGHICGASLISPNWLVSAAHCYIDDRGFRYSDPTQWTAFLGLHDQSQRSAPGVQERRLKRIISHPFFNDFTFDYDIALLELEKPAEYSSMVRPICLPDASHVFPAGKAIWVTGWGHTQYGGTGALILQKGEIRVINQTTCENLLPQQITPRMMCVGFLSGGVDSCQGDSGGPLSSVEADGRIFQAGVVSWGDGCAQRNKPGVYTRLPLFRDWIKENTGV

Mus musculus [11] = test: Toxicity in SCID mouse xenografted with human DU145 cells assessed as body weight change at 1 mg/kg, sc administered twice daily for 31 days; details: in vivo, 744 h
Cytochrome P450 2D6 = Cytochrome P450 2D6 (Homo sapiens, UniProt P10635); test: Inhibition of CYP2D6 (unknown origin); format: ADME
Cytochrome P450 2D6, sequence (P10635 whole entry): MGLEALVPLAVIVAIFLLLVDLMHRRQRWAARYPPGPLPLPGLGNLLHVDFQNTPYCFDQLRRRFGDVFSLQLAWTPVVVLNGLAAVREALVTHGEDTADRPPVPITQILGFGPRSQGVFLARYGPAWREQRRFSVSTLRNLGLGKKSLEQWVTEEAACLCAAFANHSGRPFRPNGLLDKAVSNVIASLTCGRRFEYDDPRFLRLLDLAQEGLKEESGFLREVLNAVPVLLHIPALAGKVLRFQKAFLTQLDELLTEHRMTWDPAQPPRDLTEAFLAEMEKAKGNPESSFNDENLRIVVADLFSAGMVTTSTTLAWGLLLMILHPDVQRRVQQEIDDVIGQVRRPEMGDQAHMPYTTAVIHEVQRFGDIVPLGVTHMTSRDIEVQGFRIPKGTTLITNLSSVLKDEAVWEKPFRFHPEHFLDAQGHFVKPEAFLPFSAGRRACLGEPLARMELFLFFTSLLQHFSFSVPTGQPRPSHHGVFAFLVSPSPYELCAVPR

PC-3 [12] = test: Cytotoxicity against human PC3 cells assessed as cell survival at 10 uM after 72 hrs by calcein AM assay; format: functional; details: PC-3, 72 h, read-out: Activity
[13] = Antiinvasion activity in human LNCaP-C42B4 cells assessed as inhibition of FBS-induced cell invaded to lower surface at 10 uM for 3 days by matrigel assay; format: functional; details: LNCaP-C42B4, 72 h
PC-3 [14] = test: Antiinvasion activity in human PC3 cells assessed as inhibition of FBS-induced cell invaded to lower surface at 10 uM for 3 days by matrigel assay; format: functional; details: PC-3, 72 h
Cytochrome P450 3A4 = Cytochrome P450 3A4 (Homo sapiens, UniProt P08684); test: Inhibition of CYP3A4 (unknown origin); format: ADME
Cytochrome P450 3A4, sequence (P08684 whole entry): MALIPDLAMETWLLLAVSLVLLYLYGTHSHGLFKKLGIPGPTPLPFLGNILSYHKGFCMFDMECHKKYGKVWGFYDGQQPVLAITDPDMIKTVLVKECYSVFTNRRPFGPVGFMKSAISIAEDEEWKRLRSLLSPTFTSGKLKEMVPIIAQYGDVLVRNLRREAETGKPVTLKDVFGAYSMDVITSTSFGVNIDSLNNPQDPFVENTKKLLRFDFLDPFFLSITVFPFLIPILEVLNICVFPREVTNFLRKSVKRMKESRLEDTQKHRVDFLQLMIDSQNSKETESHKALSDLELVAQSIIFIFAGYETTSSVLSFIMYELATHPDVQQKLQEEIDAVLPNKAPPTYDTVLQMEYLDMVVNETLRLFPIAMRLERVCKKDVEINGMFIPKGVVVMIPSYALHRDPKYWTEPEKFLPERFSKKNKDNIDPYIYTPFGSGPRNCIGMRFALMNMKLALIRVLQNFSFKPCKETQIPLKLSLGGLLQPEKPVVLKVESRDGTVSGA

[15] = Cytotoxicity against human LNCaP-C42B4 cells assessed as cell survival at 10 uM after 72 hrs by calcein AM assay; format: functional; details: LNCaP-C42B4, 72 h, read-out: Activity
Coagulation factor X = Coagulation factor X (Bos taurus, UniProt P00743); test: Inhibition of bovine plasma factor 10a using CH3OCO-D-CHA-Gly-Arg-pNA.AcoH substrate
Coagulation factor X, sequence (P00743 41-180 limits assumed): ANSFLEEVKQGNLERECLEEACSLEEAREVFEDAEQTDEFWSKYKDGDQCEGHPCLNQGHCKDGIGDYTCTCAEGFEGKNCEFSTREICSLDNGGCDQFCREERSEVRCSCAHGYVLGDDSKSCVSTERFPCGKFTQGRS
Coagulation factor X, sequence (P00743 234-492 limits assumed): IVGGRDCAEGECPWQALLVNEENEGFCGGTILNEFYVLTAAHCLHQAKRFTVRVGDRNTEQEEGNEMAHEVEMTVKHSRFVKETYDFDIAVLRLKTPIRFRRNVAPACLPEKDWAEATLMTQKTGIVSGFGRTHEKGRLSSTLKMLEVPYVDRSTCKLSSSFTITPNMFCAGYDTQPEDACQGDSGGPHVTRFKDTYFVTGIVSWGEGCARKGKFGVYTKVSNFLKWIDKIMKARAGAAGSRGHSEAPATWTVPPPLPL

[16] = Cytotoxicity against human LNCaP-C42B4 cells assessed as inhibition of number of colonies formed in soft agar measured on day 8; format: functional, cell-based; details: LNCaP-C42B4, 192 h
DU-145 [17] = test: Cytotoxicity against human DU145 cells assessed as inhibition of number of colonies formed in soft agar measured on day 8; format: functional, cell-based; details: DU-145, 192 h
[18] = Tmax in NMRI mouse at 1 mg/kg, sc; details: in vivo
[19] = Metabolic stability in mouse liver microsomes assessed as compound remaining after 20 mins; format: ADME; details: read-out: Stability
[20] = Cmax in NMRI mouse at 1 mg/kg, sc; details: in vivo
Plasminogen = Plasminogen (Homo sapiens, UniProt P00747); test: Inhibition of human plasmin using pyroGlu-Phe-Lys-pNA.HCl
Plasminogen, sequence (P00747 97-580 limits assumed): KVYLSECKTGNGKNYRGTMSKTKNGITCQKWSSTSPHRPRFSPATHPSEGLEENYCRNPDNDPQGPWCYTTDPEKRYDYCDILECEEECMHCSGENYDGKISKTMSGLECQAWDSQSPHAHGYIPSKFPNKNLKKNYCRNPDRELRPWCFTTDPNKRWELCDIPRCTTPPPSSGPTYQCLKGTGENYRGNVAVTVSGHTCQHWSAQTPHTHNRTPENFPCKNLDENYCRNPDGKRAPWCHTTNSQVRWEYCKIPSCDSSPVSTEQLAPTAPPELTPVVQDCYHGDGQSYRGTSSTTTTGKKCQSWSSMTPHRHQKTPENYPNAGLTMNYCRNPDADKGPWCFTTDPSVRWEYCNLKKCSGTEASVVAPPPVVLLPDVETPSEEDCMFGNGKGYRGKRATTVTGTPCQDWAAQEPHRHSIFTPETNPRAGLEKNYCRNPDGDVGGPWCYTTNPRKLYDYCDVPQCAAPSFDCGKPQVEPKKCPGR
Plasminogen, sequence (P00747 581-810 limits assumed): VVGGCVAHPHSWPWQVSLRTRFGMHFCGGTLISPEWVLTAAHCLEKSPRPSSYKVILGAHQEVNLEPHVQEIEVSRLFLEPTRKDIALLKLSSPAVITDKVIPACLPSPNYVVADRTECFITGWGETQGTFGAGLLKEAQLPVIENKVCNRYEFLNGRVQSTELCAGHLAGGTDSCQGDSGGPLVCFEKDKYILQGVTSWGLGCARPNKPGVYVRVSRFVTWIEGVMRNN

Mus musculus [21] = test: Toxicity in SCID mouse xenografted with human DU145 cells assessed as body weight change at 0.5 mg/kg, sc administered twice daily for 31 days; format: organism-based, DU-145; set-up: dose 0.5 mg/kg, route subcutaneous; details: in vivo, 744 h
DU-145 [22] = test: Antitumor activity against human DU145 cells xenografted in SCID mouse assessed as tumor growth inhibition at 0.5 mg/kg, sc administered twice daily for 31 days; format: functional; details: DU-145, sc, 744 h, route subcutaneous, read-out: TGI
Mus musculus [23] = test: Toxicity in SCID mouse xenografted with human DU145 cells assessed as clinical signs at 0.5 mg/kg, sc administered twice daily for 31 days; format: organism-based, DU-145; set-up: dose 0.5 mg/kg, route subcutaneous; details: in vivo, 744 h

Compound | Ki (Trypsin) [nM] | inhibition at 10 µM (DU-145 [2]) [%] | solubility [3] [µM] | remaining at 20 min [4] [%] | IC50 (Cytochrome P450 2C19) [nM] | viability at 10 µM (DU-145 [5]) [%] | IC50 (Cytochrome P450 2C9) [nM] | remaining at 20 min [6] [%] | EC50 (PC-3 [9]) [nM] | Ki (Prothrombin) [nM] | Ki [10] [nM] | IC50 (Cytochrome P450 2D6) [nM] | viability at 10 µM (PC-3 [12]) [%] | inhibition at 10 µM [13] [%] | inhibition at 10 µM (PC-3 [14]) [%] | IC50 (Cytochrome P450 3A4) [nM] | viability at 10 µM [15] [%] | Ki (Coagulation factor X) [nM] | EC50 [16] [nM] | EC50 (DU-145 [17]) [nM] | also measured
N=C(N)c1ccc(Oc2cc(Oc3ccc(C(=N)N)cc3)cc(C(=O)N[C@H]3CC[C@H](N)CC3)c2)cc1 | 1625 | 81 | 194 (≈ 94.4 µg/mL) | 100 | > 30000 | 100 | > 30000 | 85 | 48 | 2100 | 10 | > 30000 | 96 | 84 | 97 | > 30000 | 95 | 516 | 1360 | 200 | half-life [1]: 1.6 h; AUC(0-inf) [7]: 1000 ng·h/mL; Activity (Mus musculus [8]): Non-toxic; Activity (Mus musculus [11]): < 5%; Tmax [18]: 0.27 h; remaining at 20 min [19]: 81%; Cmax [20]: 487 ng/mL
N=C(N)c1ccc(Oc2cc(NC(=O)C3CCN(C(=O)CCN)CC3)cc(Oc3ccc(C(=N)N)cc3)c2)cc1 | 541 | 94 | – | – | – | 98 | – | – | 580 | 2680 | 61 | – | 80 | 60 | 37 | – | 99 | 95 | 1580 | 130 | Ki (Plasminogen): 2590 nM
N=C(N)c1ccc(Oc2cc(NC(=O)[C@H]3CC[C@H](N)CC3)cc(Oc3ccc(C(=N)N)cc3)c2)cc1 | 894 | 98 | 200 (≈ 97.3 µg/mL) | 91 | > 30000 | 100 | > 30000 | 97 | 105 | 2220 | 3 | > 30000 | 94 | 63 | 86 | > 30000 | 90 | 503 | 1540 | 41 | half-life [1]: 3.3 h; AUC(0-inf) [7]: 1850 ng·h/mL; Activity (Mus musculus [21]): < 5%; inhibition in vivo at 0.5 mg/kg (DU-145 [22]): 52%; Activity (Mus musculus [23]): Non-toxic; Tmax [18]: 0.75 h; remaining at 20 min [19]: 83%; Cmax [20]: 484 ng/mL
N=C(N)c1ccc(Oc2cc(Oc3ccc(C(=N)N)cc3)cc(C(=O)O[C@H]3CC[C@H](N)CC3)c2)cc1 | 264 | 89 | 182 (≈ 88.7 µg/mL) | 34 | > 30000 | 92 | > 30000 | 54 | 81 | 2470 | 1 | > 30000 | 82 | 90 | 95 | > 30000 | 95 | 44 | 135 | 152 | remaining at 20 min [19]: 24%
